Biological target: Activated CDC42 kinase 1 (Homo sapiens, UniProt Q07912)
Sequence (Q07912 whole entry): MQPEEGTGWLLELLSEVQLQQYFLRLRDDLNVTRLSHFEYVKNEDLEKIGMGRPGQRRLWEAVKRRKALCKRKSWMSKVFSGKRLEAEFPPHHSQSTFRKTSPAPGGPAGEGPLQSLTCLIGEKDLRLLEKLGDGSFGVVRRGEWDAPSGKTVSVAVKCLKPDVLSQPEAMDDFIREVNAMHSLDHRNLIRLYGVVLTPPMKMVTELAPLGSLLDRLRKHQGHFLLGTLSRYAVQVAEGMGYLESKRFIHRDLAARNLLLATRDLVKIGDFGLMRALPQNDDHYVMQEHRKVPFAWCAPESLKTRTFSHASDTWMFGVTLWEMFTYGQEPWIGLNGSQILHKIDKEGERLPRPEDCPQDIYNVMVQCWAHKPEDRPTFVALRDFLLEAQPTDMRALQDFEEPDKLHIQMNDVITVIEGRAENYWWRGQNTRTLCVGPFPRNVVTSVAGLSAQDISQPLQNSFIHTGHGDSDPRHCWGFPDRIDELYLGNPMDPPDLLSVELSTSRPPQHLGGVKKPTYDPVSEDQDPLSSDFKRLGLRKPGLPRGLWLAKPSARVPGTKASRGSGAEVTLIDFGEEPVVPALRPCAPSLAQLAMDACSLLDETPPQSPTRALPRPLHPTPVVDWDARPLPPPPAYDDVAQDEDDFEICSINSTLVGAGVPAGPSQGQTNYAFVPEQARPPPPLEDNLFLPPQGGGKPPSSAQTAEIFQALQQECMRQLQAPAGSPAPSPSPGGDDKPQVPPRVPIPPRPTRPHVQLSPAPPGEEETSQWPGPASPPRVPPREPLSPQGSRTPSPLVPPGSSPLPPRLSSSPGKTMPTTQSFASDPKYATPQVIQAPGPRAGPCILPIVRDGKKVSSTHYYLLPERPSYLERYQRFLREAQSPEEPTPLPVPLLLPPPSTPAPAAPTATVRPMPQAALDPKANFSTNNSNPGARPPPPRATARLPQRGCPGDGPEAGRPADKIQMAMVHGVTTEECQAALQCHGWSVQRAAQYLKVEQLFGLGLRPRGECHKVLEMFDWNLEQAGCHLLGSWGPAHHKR

IC50: 26 nM
SMILES: COc1cc(N2CCN(C)CC2)ccc1Nc1ncc(Cl)c(Nc2ccc(NS(C)(=O)=O)cc2)n1 [US20240010634, Example 33]

Source: BindingDB's records for patent US20240010634 (H. Lee Moffitt Cancer Center and Research Institute, 2024)
